Results reported in patent US11427548B2 (Arvinas Operations, Inc., priority 2015, dated 2022).

Biological target: T1, Androgen Receptor (Homo sapiens, UniProt P10275+P40337, T878A)
T1 construct: Compounds have been evaluated in this assay in LNCaP and/or VCaP cells utilizing similar protocols; endogenous in cells; host or cells: LNCaP cells
Assay: Androgen Receptor ELISA assay (PathScan AR ELISA) in LNCaP cells: AR degradation, Dmax and DC50
Format: cell-based
Conditions: for DC50: concentration that caused 50% Androgen Receptor degradation

[1] = highest percentage of Androgen Receptor degradation
[2] = highest percentage of Androgen Receptor degradation observed

T1 sequence (P10275 whole entry T878A): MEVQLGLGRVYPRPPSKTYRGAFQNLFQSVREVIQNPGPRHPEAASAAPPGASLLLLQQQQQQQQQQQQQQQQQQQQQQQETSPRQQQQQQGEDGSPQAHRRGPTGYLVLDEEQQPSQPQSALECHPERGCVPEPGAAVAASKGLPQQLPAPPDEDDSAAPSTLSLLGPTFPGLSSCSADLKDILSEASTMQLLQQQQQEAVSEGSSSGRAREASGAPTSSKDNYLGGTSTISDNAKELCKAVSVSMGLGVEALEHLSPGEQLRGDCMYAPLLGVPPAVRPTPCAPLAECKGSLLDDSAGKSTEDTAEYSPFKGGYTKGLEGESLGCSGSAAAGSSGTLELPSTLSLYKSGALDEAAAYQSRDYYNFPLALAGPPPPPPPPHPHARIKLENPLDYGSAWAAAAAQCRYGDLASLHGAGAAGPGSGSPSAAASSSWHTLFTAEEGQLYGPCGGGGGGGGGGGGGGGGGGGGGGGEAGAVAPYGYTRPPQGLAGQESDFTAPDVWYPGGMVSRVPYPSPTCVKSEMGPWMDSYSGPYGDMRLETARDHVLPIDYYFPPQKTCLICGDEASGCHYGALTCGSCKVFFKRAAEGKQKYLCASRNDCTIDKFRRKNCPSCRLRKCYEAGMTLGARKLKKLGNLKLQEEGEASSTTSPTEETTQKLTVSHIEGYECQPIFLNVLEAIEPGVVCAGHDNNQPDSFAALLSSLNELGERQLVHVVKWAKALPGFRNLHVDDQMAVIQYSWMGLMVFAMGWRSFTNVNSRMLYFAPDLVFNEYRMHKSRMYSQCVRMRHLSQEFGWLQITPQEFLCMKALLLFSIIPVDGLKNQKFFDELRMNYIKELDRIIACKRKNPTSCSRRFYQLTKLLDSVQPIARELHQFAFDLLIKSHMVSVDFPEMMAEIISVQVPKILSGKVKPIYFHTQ
T1 sequence (P40337 whole entry): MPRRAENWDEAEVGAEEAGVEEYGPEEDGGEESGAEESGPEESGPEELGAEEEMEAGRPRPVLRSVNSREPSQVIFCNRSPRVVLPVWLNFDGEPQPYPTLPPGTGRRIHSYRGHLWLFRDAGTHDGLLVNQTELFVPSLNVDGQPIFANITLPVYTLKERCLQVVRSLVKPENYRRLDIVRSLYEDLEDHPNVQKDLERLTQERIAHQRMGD
T1 sequence (Q15369 whole entry partner): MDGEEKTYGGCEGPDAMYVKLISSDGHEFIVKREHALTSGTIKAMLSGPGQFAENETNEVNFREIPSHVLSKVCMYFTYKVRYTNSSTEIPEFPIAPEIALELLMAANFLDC
T1 sequence (Q15370 whole entry partner): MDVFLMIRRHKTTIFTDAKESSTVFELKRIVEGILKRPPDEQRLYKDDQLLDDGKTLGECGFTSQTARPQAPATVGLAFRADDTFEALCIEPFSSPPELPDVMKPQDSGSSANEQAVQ

| Compound | DC50 [nM] | Dmax [1] [%] | Dmax [2] [%] |
| --- | --- | --- | --- |
| Cc1ncsc1-c1ccc(CNC(=O)[C@@H]2C[C@@H](O)CN2C(=O)[C@@H](NC(=O)CCCCCOCCCCCOc2ccc(N3C(=S)N(c4ccc(C#N)c(C(F)(F)F)c4)C(=O)C3(C)C)cc2)C(C)(C)C)cc1 [Example 249] | 51 to 500 | > 71 | – |
| Cc1ncsc1-c1ccc(CNC(=O)[C@@H]2C[C@@H](O)CN2C(=O)[C@@H](NC(=O)COCCOCCN(C)C(=O)CCCc2ccc(N3C(=S)N(c4ccc(C#N)c(C(F)(F)F)c4)C(=O)C3(C)C)cc2)C(C)(C)C)cc1 [Example 64, (2S,4R)-1-[(2S)-2-[2-(2-{2-[4-(4-{3-[4-cyano-3-(trifluoromethyl)phenyl]-5,5-dimethyl-4-oxo-2-sulfanylideneimidazolidin-1-yl}phenyl)-N-methylbutanamido]ethoxy}ethoxy)acetamido]-3,3-dimethylbutanoyl]-4-hydroxy-N-{[4-(4-methyl-1,3-thiazol-5-yl)phenyl]methyl}pyrrolidine-2-carboxamide] | 51 to 500 | – | 51 to 70 |
| Cc1ncsc1-c1ccc(CNC(=O)[C@@H]2C[C@@H](O)CN2C(=O)[C@@H](NC(=O)CCNC(=O)CCCc2ccc(N3C(=S)N(c4ccc(C#N)c(C(F)(F)F)c4)C(=O)C3(C)C)cc2)C(C)(C)C)cc1 [Example 231] | > 501 | 51 to 70 | – |
| Cc1ncsc1-c1ccc(CNC(=O)[C@@H]2C[C@@H](O)CN2C(=O)[C@@H](NC(=O)COCCOCCOCCOc2ccc(N3C(=O)N(c4ccc(C#N)c(C(F)(F)F)c4)C(=O)C3(C)C)cc2)C(C)(C)C)cc1 [Example 17, (2S,4R)-1-[(2S)-2-[2-(2-{2-[2-(4-{3-[4-cyano-3-(trifluoromethyl)phenyl]-5,5-dimethyl-2,4-dioxoimidazolidin-1-yl}phenoxy)ethoxy]ethoxy}ethoxy)acetamido]-3,3-dimethylbutanoyl]-4-hydroxy-N-{[4-(4-methyl-1,3-thiazol-5-yl)phenyl]methyl}pyrrolidine-2-carboxamide] | 51 to 500 | – | 26 to 50 |
| Cc1ncsc1-c1ccc(CNC(=O)[C@@H]2C[C@@H](O)CN2C(=O)[C@H](C(C)C)N2Cc3ccccc3C2=O)c(OCCCCOCCCOc2ccc(N3C(=S)N(c4ccc(C#N)c(C(F)(F)F)c4)C(=O)C3(C)C)cc2)c1 [Example 279] | > 501 | 51 to 70 | – |
| Cc1ncsc1-c1ccc(CNC(=O)[C@@H]2C[C@@H](O)CN2C(=O)[C@@H](NC(=O)c2ccc(OCCOC3CCN(C(=O)c4ccc(N5C(=S)N(c6ccc(C#N)c(C(F)(F)F)c6)C(=O)C5(C)C)cc4)CC3)cc2)C(C)(C)C)cc1 [Example 291] | > 501 | < 25 | – |
| Cc1ncsc1-c1ccc(CNC(=O)[C@@H]2C[C@@H](O)CN2C(=O)[C@H](C(C)C)N2Cc3ccccc3C2=O)c(OCCOCCOCCOCCOCCOc2ccc(N3C(=S)N(c4ccc(C#N)c(C(F)(F)F)c4)C(=O)C3(C)C)cc2)c1 [Example 211] | 51 to 500 | 26 to 50 | – |
| Cc1ncsc1-c1ccc(CNC(=O)[C@@H]2C[C@@H](O)CN2C(=O)[C@H](C(C)C)N2Cc3ccccc3C2=O)c(OCCOCCOCCCOCCOCCOc2ccc(N3C(=S)N(c4ccc(C#N)c(C(F)(F)F)c4)C(=O)C3(C)C)cc2)c1 [Example 214] | 51 to 500 | 51 to 70 | – |
| Cc1ncsc1-c1ccc(CNC(=O)[C@@H]2C[C@@H](O)CN2C(=O)[C@@H](NC(=O)C(C)(C)C)C(C)(C)C)c(OCCOCCOCCOc2ccc(N3C(=S)N(c4ccc(C#N)c(C(F)(F)F)c4)C(=O)C3(C)C)cc2)c1 [Example 270] | 51 to 500 | 51 to 70 | – |
| Cc1ncsc1-c1ccc(CNC(=O)[C@@H]2C[C@@H](O)CN2C(=O)[C@@H](NC(=O)CCCCOCCCCCOc2ccc(N3C(=S)N(c4ccc(C#N)c(C(F)(F)F)c4)C(=O)C3(C)C)cc2)C(C)(C)C)cc1 [Example 246] | 51 to 500 | > 71 | – |
| Cc1ncsc1-c1ccc(CNC(=O)[C@@H]2C[C@@H](O)CN2C(=O)[C@@H](NC(=O)c2ccc(C3CCN(CCCOc4ccc(N5C(=S)N(c6ccc(C#N)c(C(F)(F)F)c6)C(=O)C5(C)C)cc4)CC3)cc2)C(C)(C)C)cc1 [Example 289] | > 501 | 26 to 50 | – |
| Cc1ncsc1-c1ccc(CNC(=O)[C@@H]2C[C@@H](O)CN2C(=O)[C@H](C(C)C)N2Cc3ccc(F)cc3C2=O)c(OCCOCCOCCOc2ccc(N3C(=S)N(c4ccc(C#N)c(C(F)(F)F)c4)C(=O)C3(C)C)cc2)c1 [Example 83, (2S,4R)-N-{[2-(2-{2-[2-(4-{3-[4-cyano-3-(trifluoromethyl)phenyl]-5,5-dimethyl-4-oxo-2-sulfanylideneimidazolidin-1-yl}phenoxy)ethoxy]ethoxy}ethoxy)-4-(4-methyl-1,3-thiazol-5-yl)phenyl]methyl}-1-[(2S)-2-(6-fluoro-1-oxo-2,3-dihydro-1H-isoindol-2-yl)-3-methylbutanoyl]-4-hydroxypyrrolidine-2-carboxamide] | 51 to 500 | – | 51 to 70 |
| Cc1ncsc1-c1ccc(CNC(=O)[C@@H]2C[C@@H](O)CN2C(=O)[C@@H](NC(=O)COCCO[C@H](C)[C@@H](C)OCCOc2ccc(N3C(=S)N(c4ccc(C#N)c(C(F)(F)F)c4)C(=O)C3(C)C)cc2)C(C)(C)C)cc1 [Example 23, (2S,4R)-1-[(2S)-2-[2-(2-{[(2R,3R)-3-[2-(4-{3-[4-cyano-3-(trifluoromethyl)phenyl]-5,5-dimethyl-4-oxo-2-sulfanylideneimidazolidin-1-yl}phenoxy)ethoxy]butan-2-yl]oxy}ethoxy)acetamido]-3,3-dimethylbutanoyl]-4-hydroxy-N-{[4-(4-methyl-1,3-thiazol-5-yl)phenyl]methyl}pyrrolidine-2-carboxamide] | 51 to 500 | – | > 71 |
| CC(=O)NCC(=O)N1C[C@H](O)C[C@H]1C(=O)NCc1ccc(-c2scnc2C)cc1OCCOCCOCCOc1ccc(N2C(=S)N(c3ccc(C#N)c(C(F)(F)F)c3)C(=O)C2(C)C)cc1 [Example 271] | > 501 | 26 to 50 | – |
| COc1cc(N2C(=O)C(C)(C)N(c3ccc(OCCCCCOCCCOCC(=O)N[C@H](C(=O)N4C[C@H](O)C[C@H]4C(=O)NCc4ccc(-c5scnc5C)cc4)C(C)(C)C)cc3)C2=S)ccc1C#N [Example 9, (2S,4R)-1-[(2S)-2-(2-{3-[(5-{4-[3-(4-cyano-3-methoxyphenyl)-5,5-dimethyl-4-oxo-2-sulfanylideneimidazolidin-1-yl]phenoxy}pentyl)oxy]propoxy}acetamido)-3,3-dimethylbutanoyl]-4-hydroxy-N-{[4-(4-methyl-1,3-thiazol-5-yl)phenyl]methyl}pyrrolidine-2-carboxamide] | < 50 | – | > 71 |
| CC(=O)N[C@H](C(=O)N1C[C@H](O)C[C@H]1C(=O)NCc1ccc(-c2scnc2C)cc1OCCOCCOCCOc1ccc(N2C(=S)N(c3ccc(C#N)c(C(F)(F)F)c3)C(=O)C2(C)C)cc1)C(C)C [Example 281] | > 501 | 51 to 70 | – |
| Cc1ncsc1-c1ccc(CNC(=O)[C@@H]2C[C@@H](O)CN2C(=O)[C@@H](NC(=O)COCCOCCCOCCCOc2ccc(N3C(=S)N(c4ccc(C#N)c(C(F)(F)F)c4)C(=O)C3(C)C)cc2)C(C)(C)C)cc1 [Example 262] | 51 to 500 | 26 to 50 | – |
| Cc1ncsc1-c1ccc(CNC(=O)[C@@H]2C[C@@H](O)CN2C(=O)[C@@H](NC(=O)COCCCCOCCCCCOc2ccc(N3C(=S)N(c4ccc(C#N)c(C(F)(F)F)c4)C(=O)C3(C)C)cc2)C(C)(C)C)cc1 [Example 255] | 51 to 500 | > 71 | – |
